Measurements from US20040122083A1, “Antitubulin assembly and cell growth inhibitor denominated "dioxostatin"” (priority 2003, published 2004).
≈ marks a conversion by molar mass, not a printed value. Where two headings read alike, the source gives them in different places.

Experiments:
BXPC-3 = experiment: Human cancer cell line growth inhibition, Pancreas-a BXPC-3; assay type: cell-based; conditions: for GI50: Homo sapiens
SK-N-SH = experiment: Human cancer cell line growth inhibition, Neuroblast SK-N-SH; assay type: cell-based; conditions: for GI50: Homo sapiens
SW1736 = experiment: Human cancer cell line growth inhibition, Thyroid ca SW1736; assay type: cell-based; conditions: for GI50: Homo sapiens, SW-1736
NCI-H460 = experiment: Human cancer cell line growth inhibition, Lung-NSC NCI-H460; assay type: cell-based; conditions: for GI50: Homo sapiens
FADU = experiment: Human cancer cell line growth inhibition, Pharynx-sq FADU; assay type: cell-based; conditions: for GI50: Homo sapiens, FaDu
DU-145 = experiment: Human cancer cell line growth inhibition, Prostate DU-145; assay type: cell-based; conditions: for GI50: Homo sapiens
OVCAR-3 = experiment: Human cancer cell line growth inhibition, Ovarian OVCAR-3; assay type: cell-based; conditions: for GI50: Homo sapiens
SF-295 = experiment: Human cancer cell line growth inhibition, CNS SF-295; assay type: cell-based; conditions: for GI50: Homo sapiens
A498 = experiment: Human cancer cell line growth inhibition, Renal A498; assay type: cell-based; conditions: for GI50: Homo sapiens
KM20L2 = experiment: Human cancer cell line growth inhibition, Colon KM20L2; assay type: cell-based; conditions: for GI50: Homo sapiens, KM-20L2
tubulin [1] = biological target: T1, tubulin (Bos taurus, UniProt P81947+Q6B856); experiment: Inhibition of tubulin polymerization (assembly); assay type: biochemical
Procedure: (§1) Tubulin assays. The tubulin polymerizion and colchicine binding experiments were performed as described previously (See: Verdier-Pinard, P.; Lai, J -Y.; Yoo, H -D.; Yu, J.; Marquez, B.; Nagle, D. G.; Nambu, M.; White, J. D.; Falck, J. R; Gerwick, W. H.; Day, B. W.; Hamel, E. Mol. Pharmacol. 1998, 53, 62-76). However, in the polymerization assays Beckman DU7400/7500 spectrophotometers equipped with “high performance” temperature controllers were used. […] Temperature changes were, however, more rapid, with the jump from the lower temperature to 30EC taking about 20 sec and the reverse jump about 100 sec.

Streptococcus pneumoniae = experiment: Disk susceptibility testing; assay type: cell-based
Excerpt: (§2) Antimicrobial susceptibility testing. […] Eur. J. Med. Chem. 1998, 33, 71-77).

[2] = system: the ten bacteria and fungi tested; experiment: Disk susceptibility testing, whole panel; assay type: cell-based; conditions: at 100 μg/disk
Excerpt: as §2

tubulin [3] = biological target: T1, tubulin; experiment: Inhibition of [3H]colchicine binding to tubulin
Procedure: as §1

Neisseria gonorrhoeae = experiment: Disk susceptibility testing; assay type: cell-based
Excerpt: as §2

Aqueous solubility = assay type: physicochemical
Staphylococcus aureus = experiment: Disk susceptibility testing; assay type: cell-based
Excerpt: as §2

colchicine binding = conditions: at equal concentrations; cited from earlier work
solid tumors = conditions: cited from earlier work
Candida albicans = system: Candida albicans
Excerpt: as §2

Cryptococcus neoformans = system: Cryptococcus neoformans
Excerpt: as §2

[4] = system: Stenotrophomonas maltophilia
Excerpt: as §2

cancer cell growth = conditions: cited from earlier work; for activity as cancer cell growth inhibitors: initial finding
[5] = Table II, tubulin concentration 10 μM, read-out: Inhibition of tubulin Polymerization IC50 ± SD
[6] = Table IV and text, read-out: Inhibition of Tubulin Assembly IC50 ± SD
[7] = read-out: % Inhibition Colchicine binding ± SD

T1 sequence (Q6B856 whole entry): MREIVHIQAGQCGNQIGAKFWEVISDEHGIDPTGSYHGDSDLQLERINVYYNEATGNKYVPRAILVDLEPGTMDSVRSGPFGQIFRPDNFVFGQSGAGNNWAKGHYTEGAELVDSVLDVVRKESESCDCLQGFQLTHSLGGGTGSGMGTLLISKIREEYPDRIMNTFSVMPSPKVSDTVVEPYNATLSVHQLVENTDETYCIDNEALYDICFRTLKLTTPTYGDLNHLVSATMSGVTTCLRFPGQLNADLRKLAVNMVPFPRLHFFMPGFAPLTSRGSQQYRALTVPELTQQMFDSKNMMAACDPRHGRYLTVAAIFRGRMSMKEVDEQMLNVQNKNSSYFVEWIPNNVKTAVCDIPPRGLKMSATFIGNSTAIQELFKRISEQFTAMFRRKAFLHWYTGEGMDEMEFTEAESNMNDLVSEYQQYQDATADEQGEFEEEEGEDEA
T1 sequence (P81947 whole entry): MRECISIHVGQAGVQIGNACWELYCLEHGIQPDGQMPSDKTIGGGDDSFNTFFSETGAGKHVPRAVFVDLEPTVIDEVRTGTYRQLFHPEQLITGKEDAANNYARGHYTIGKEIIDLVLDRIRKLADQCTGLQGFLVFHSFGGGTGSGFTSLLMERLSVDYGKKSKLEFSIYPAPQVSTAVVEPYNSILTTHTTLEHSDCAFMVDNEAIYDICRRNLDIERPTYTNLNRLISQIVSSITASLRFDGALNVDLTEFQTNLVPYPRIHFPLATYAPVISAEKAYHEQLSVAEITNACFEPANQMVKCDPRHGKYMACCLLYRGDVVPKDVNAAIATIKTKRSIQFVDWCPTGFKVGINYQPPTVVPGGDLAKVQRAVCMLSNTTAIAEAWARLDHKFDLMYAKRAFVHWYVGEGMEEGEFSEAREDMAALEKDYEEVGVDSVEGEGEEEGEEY

COc1ccc([C@@H](O)[C@H](O)c2cc(OC)c(OC)c(OC)c2)cc1O [(R,R)-3a]
Pancreas-a BXPC-3 GI50 (BXPC-3): >10 µg/mL
Neuroblast SK-N-SH GI50 (SK-N-SH): 1.5 µg/mL
Thyroid ca SW1736 GI50 (SW1736): 6.1 µg/mL
Lung-NSC NCI-H460 GI50 (NCI-H460): 4.4 µg/mL
Pharynx-sq FADU GI50 (FADU): 2.1 µg/mL
Prostate DU-145 GI50 (DU-145): 3.5 µg/mL
Ovarian OVCAR-3 GI50 (OVCAR-3): 4.5 µg/mL
CNS SF-295 GI50 (SF-295): 5.7 µg/mL
Renal A498 GI50 (A498): >10 µg/mL
Colon KM20L2 GI50 (KM20L2): 8.2 µg/mL
IC50 (tubulin [1]; [5]): > 40 µM
Minimum inhibitory Concentration (Streptococcus pneumoniae): 50-100 μg/disk

COc1ccc([C@@H](O)[C@H](O)c2cc(OC)c(OC)c(OC)c2)c(O)c1O [(R,R)-3b, (1R,2R)-1,2-Dihydroxy-1-(2′,3′-dihydroxy-4′-methoxyphenyl)-2-(3″,4″,5″-trimethoxyphenyl)-ethane]
GI50 (BXPC-3): > 10 µg/mL
GI50 (SK-N-SH): 3.1 µg/mL (≈ 8.46 µM)
GI50 (SW1736): > 10 µg/mL
GI50 (NCI-H460): 7.9 µg/mL (≈ 21.6 µM)
GI50 (FADU): 4.9 µg/mL (≈ 13.4 µM)
GI50 (DU-145): > 10 µg/mL
GI50 (OVCAR-3): 7.2 µg/mL (≈ 19.7 µM)
GI50 (SF-295): 2.6 µg/mL (≈ 7.1 µM)
GI50 (A498): > 10 µg/mL
GI50 (KM20L2): 7 µg/mL (≈ 19.1 µM)
Microbe(s) inhibited, whole panel [2]: * (at 100 μg/disk, no inhibition of the ten bacteria and fungi tested)
melting point: 64 to 66 °C

COc1ccc([C@H]2OCO[C@@H]2c2cc(OC)c(OC)c(OC)c2)c(O)c1O [(R,R)-10a, (4R,5R)-4-(2′,3′-Dihydroxy-4′-methoxyphenyl)-5-(3″,4″,5″-trimethoxyphenyl)-1,3-dioxolane]
Pancreas-a BXPC-3 GI50 (BXPC-3): >10 µg/mL
Lung-NSC NCI-H460 GI50 (NCI-H460): >10 µg/mL
Prostate DU-145 GI50 (DU-145): >10 µg/mL
Ovarian OVCAR-3 GI50 (OVCAR-3): >10 µg/mL
CNS SF-295 GI50 (SF-295): 5.0 µg/mL
Colon KM20L2 GI50 (KM20L2): >10 µg/mL
IC50 (tubulin [1]; [6]): 5.7 ± 0.8 µM
% Inhibition Colchicine binding ± SD (tubulin [3]; 5 μM Inhibitor): 14 ± 5%
% Inhibition Colchicine binding ± SD (tubulin [3]; 50 μM Inhibitor): 57 ± 0.8%

COc1ccc([C@H](O)[C@@H](O)c2cc(OC)c(OC)c(OC)c2)cc1O [(S,S)-4a]
Pancreas-a BXPC-3 GI50 (BXPC-3): 3.9 µg/mL
Neuroblast SK-N-SH GI50 (SK-N-SH): 0.28 µg/mL
Thyroid ca SW1736 GI50 (SW1736): 1.8 µg/mL
Lung-NSC NCI-H460 GI50 (NCI-H460): 2.5 µg/mL
Pharynx-sq FADU GI50 (FADU): 0.60 µg/mL
Prostate DU-145 GI50 (DU-145): 2.1 µg/mL
Ovarian OVCAR-3 GI50 (OVCAR-3): 0.38 µg/mL
CNS SF-295 GI50 (SF-295): 0.52 µg/mL
Renal A498 GI50 (A498): 0.91 µg/mL
Colon KM20L2 GI50 (KM20L2): 0.52 µg/mL
IC50 (tubulin [1]; [5]): 14 ± 2 µM
Minimum inhibitory Concentration (Streptococcus pneumoniae): 25-50 μg/disk

COc1ccc([C@H](O)[C@@H](O)c2cc(OC)c(OC)c(OC)c2)c(O)c1O [(S,S)-4b]
GI50 (BXPC-3): > 10 µg/mL
GI50 (SK-N-SH): 3.8 µg/mL (≈ 10.4 µM)
GI50 (SW1736): > 10 µg/mL
GI50 (NCI-H460): > 10 µg/mL
GI50 (FADU): > 10 µg/mL
GI50 (DU-145): > 10 µg/mL
GI50 (OVCAR-3): > 10 µg/mL
GI50 (SF-295): 2.9 µg/mL (≈ 7.92 µM)
GI50 (A498): > 10 µg/mL
GI50 (KM20L2): > 10 µg/mL
Minimum inhibitory Concentration (Neisseria gonorrhoeae): 25-50 μg/disk
melting point: 64 to 66 °C

COc1ccc([C@@H]2OCO[C@H]2c2cc(OC)c(OC)c(OC)c2)c(O)c1O [(S,S)-9a, (4S,5S)-4-(2′,3′-dihydroxy-4′-methoxyphenyl)-5-(3″,4″,5″-trimethoxyphenyl)-1,3-dioxolane]
Pancreas-a BXPC-3 GI50 (BXPC-3): 5.4 µg/mL
Lung-NSC NCI-H460 GI50 (NCI-H460): >10 µg/mL
Prostate DU-145 GI50 (DU-145): 3.0 µg/mL
Ovarian OVCAR-3 GI50 (OVCAR-3): 4.3 µg/mL
CNS SF-295 GI50 (SF-295): 2.9 µg/mL
Colon KM20L2 GI50 (KM20L2): 5.0 µg/mL
IC50 (tubulin [1]; [6]): 0.59 µM
% Inhibition Colchicine binding ± SD (tubulin [3]; 1 μM Inhibitor): 67 ± 6%
% Inhibition Colchicine binding ± SD (tubulin [3]; 5 μM Inhibitor): 91 ± 1%

COc1cc([C@@H]2OCO[C@H]2c2ccc(OC)c(OP(=O)([O-])[O-])c2OP(=O)([O-])[O-])cc(OC)c1OC.[Na+].[Na+].[Na+].[Na+] [(S,S)-21, Tetrasodium-(4S,5S)-4-(2′,3′-O-diphosphonate-4′-methoxyphenyl)-5-(3″,4″,5″-trimethoxyphenyl)-1,3-dioxolane]
GI50 (BXPC-3): > 10 µg/mL
GI50 (NCI-H460): 3.4 µg/mL
GI50 (DU-145): 2.9 µg/mL
GI50 (OVCAR-3): 2.6 µg/mL
GI50 (SF-295): 3.2 µg/mL
GI50 (KM20L2): > 10 µg/mL
solubility (Aqueous solubility): > 35 mg/mL

COc1ccc(/C=C\c2cc(OC)c(OC)c(OC)c2)c(O)c1O [Compound 1a, combretastatin A-1, reference compound]
inhibition at 1 µM (tubulin [3]; [7]): 89 ± 3%
inhibition at 5 µM (tubulin [3]; [7]): 99.6%
Minimum inhibitory Concentration (Neisseria gonorrhoeae): 25-50 μg/disk
Minimum inhibitory Concentration (Staphylococcus aureus): 50-100 μg/disk
inhibition of colchicine binding (colchicine binding): ~99%
degree of reduction, vascular shutdown within solid tumors (solid tumors): 50%

COc1ccc(/C=C\c2cc(OC)c(OC)c(OC)c2)cc1O [Compound 1b, combretastatin A-4]
degree of reduction, vascular shutdown within solid tumors (solid tumors): 70%

COc1ccc(/C=C\c2cc(OC)c(OC)c(OC)c2)cc1OP(=O)([O-])[O-].[Na+].[Na+] [Compound 1d]
vascular shutdown within metastatic tumors (solid tumors; doses one-tenth of the maximum tolerated dose): complete vascular shutdown

COc1ccc(/C=C/c2cc(OC)c(OC)c(OC)c2)c(O)c1O [Compound 2b, E-combretastatin A-1]
Minimum inhibitory Concentration (Neisseria gonorrhoeae): 6.25-12.5 μg/disk
Minimum inhibitory Concentration (Streptococcus pneumoniae): 50-100 μg/disk
Minimum inhibitory Concentration (Candida albicans): 50-100 μg/disk
Minimum inhibitory Concentration (Cryptococcus neoformans): 50-100 μg/disk
Minimum inhibitory Concentration [4]: 50-100 μg/disk
activity as cancer cell growth inhibitors (cancer cell growth): moderately active

COc1ccc(/C=C/c2cc(OC)c(OC)c(OC)c2)cc1O [Compound 2d]
Microbe(s) inhibited, whole panel [2]: * (at 100 μg/disk, no inhibition of the ten bacteria and fungi tested)
activity as cancer cell growth inhibitor (cancer cell growth; freshly prepared solutions in dimethyl sulfoxide): inactive
activity as cancer cell growth inhibitors (cancer cell growth): moderately active
